Measured values from PMC9176662, “Design, synthesis, molecular modeling and biological evaluation of novel Benzoxazole-Benzamide conjugates via a 2-Thioacetamido linker as potential anti-proliferative agents, VEGFR-2 inhibitors and apoptotic inducers” (Journal of Enzyme Inhibition and Medicinal Chemistry, 2022).

What was measured:
HCT-116 cells = experiment: Anti-proliferative activity, SRB assay, HCT-116; assay type: cell-based, human; conditions: for IC50: Homo sapiens, SRB assay, 72 h exposure, mean ± SD of three separate experiments; for HCT-116 SI (selectivity index): ratio of IC50 for normal cells (WI-38) to IC50 for HCT-116
Text: (§1) Several of these derivatives were reported as acting as competitive inhibitors of different tyrosine kinases, with potent cytotoxic activity against various cell lines[58]^,[59]. […] Thus, in this study a novel series of benzoxazole-benzamide conjugates was initially evaluated for their potential anti-cancer activity against colon cancer cell line (HCT-116), breast cancer cell line (MCF-7) and normal human fibroblasts (WI-38), using the Sulforhodamine B colorimetric (SRB) assay.
(§2) 2.1. Anti-proliferative activity against HCT-116 and MCF-7 human cancer cells lines.
(§3) The sulforhodamine B (SRB) assays were performed according to Skehan et al..
(§4) Briefly, exponentially growing cells were trypsinized, counted and seeded at the appropriate densities (5000 cells/100 μL/ well) into 96-well microtiter plates. Cells were incubated in a humidified atmosphere at 37 °C for 24 h. Then, the cells were exposed to the tested compounds at the desired concentrations (0.01, 0.1, 1, 10, and 100 μM) or to 1% dimethyl sulfoxide (DMSO) for 72 h. At the end of the treatment period, the media were removed, and the cells were fixed with 10% trichloroacetic acid at 4 °C for 1 h. Following, the cells were washed with tap water four times and incubated with SRB 0.4% for 30 min. Excess dye was removed by washing repeatedly with 1% (vol/vol) acetic acid. The protein-bound dye was dissolved in 10 mM Tris base solution for (optical density) OD determination at 510 nm using a Spectra Max plus Microplate Reader (Molecular Devices, CA). Cell viability was expressed relative to the untreated control cells. […]

WI-38 cells = experiment: Cytotoxicity against normal fibroblasts, SRB assay, WI-38; assay type: cell-based; conditions: normal human fibroblasts, 72 h, mean ± SD of three separate experiments
Text: as §1, §2, §3, §4

MCF-7 cells = experiment: Anti-proliferative activity, SRB assay, MCF-7; assay type: cell-based, human; conditions: for IC50: Homo sapiens, SRB assay, 72 h exposure, mean ± SD of three separate experiments; for MCF-7 SI (selectivity index): ratio of IC50 for normal cells (WI-38) to IC50 for MCF-7
Text: as §1, §2, §3, §4

VEGFR-2 Protein Kinase = biological target: T1, VEGFR-2 Protein Kinase (Homo sapiens, UniProt P35968); experiment: VEGFR-2 inhibitory activity (HTScan VEGF Receptor-2 Kinase Assay Kit, ELISA); assay type: biochemical; conditions: mean of three individual experiments
T1 construct: It includes active VEGFR-2 kinase; purchased HTScan VEGF Receptor-2 Kinase Assay Kit
T1 sequence (P35968 20-1356): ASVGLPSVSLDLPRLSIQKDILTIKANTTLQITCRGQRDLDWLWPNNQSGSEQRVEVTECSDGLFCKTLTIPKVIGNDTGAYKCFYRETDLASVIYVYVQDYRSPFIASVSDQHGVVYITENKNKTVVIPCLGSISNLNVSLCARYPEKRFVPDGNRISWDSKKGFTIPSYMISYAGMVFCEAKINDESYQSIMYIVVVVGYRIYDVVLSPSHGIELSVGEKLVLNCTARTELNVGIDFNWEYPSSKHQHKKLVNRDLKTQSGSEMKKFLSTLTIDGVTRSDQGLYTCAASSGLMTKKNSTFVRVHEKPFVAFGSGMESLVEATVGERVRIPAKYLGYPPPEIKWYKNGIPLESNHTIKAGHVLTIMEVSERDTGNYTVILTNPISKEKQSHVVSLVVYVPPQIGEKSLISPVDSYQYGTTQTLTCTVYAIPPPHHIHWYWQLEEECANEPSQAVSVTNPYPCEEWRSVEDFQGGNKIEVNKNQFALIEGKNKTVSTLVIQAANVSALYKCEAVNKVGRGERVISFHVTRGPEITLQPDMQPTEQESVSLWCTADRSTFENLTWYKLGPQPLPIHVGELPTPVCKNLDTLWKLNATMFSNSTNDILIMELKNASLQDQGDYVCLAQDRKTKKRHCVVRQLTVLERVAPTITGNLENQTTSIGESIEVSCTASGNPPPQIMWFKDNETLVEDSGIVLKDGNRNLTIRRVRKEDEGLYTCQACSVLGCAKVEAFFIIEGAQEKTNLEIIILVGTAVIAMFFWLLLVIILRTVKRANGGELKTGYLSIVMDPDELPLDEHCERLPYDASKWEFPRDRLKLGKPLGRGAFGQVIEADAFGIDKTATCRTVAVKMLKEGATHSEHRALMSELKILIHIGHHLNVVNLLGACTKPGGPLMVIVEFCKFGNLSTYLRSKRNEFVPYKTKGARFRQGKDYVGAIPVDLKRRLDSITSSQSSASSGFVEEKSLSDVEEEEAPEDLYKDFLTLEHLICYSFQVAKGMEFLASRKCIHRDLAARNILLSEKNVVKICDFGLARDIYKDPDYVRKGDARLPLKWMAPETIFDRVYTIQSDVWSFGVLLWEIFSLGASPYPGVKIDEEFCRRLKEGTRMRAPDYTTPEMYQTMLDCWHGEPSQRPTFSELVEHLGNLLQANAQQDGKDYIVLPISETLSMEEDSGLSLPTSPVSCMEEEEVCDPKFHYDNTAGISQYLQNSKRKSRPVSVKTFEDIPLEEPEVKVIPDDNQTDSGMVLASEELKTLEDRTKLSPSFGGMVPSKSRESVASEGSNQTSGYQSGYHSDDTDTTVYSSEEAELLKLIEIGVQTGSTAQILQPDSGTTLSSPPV
Protocol: 2.2. VEGFR-2 Inhibitory activity
VEGFR-2 ELISA (Enzyme-Linked Immunosorbent Assay) kits (HTScan® VEGF Receptor-2 […]
phospho-tyrosine antibody) for detection of the phosphorylated form of the substrate peptide).
On a 96-well plate, a particular VEGFR-2 antibody was seeded and 100 μL of the normal solution or the tested compound tested was applied, incubated at room temperature for 2.5 h and washed. Then, 100 μL of the prepared biotin antibody was added, incubated for an additional 1 h at room temperature and washed. Following, 100 μL of streptavidin solution was added at room temperature, incubated for 45 minutes and then, 100 μL of TMB Substrate solution was applied and incubated at room temperature for 30 minutes. Finally, 50 μL stop solution was added and the absorption was measured at 450 nm instantly. The standard curve, the X -axis concentrations, and the Y-axis absorbance were drawn. […]

SMILES	IC50 (HCT-116 cells; HCT-116, 72 h) [µM]	HCT-116 SI (selectivity index) (HCT-116 cells)	IC50 (WI-38 cells) [µM]	IC50 (MCF-7 cells; MCF7, 72 h) [µM]	MCF-7 SI (selectivity index) (MCF-7 cells)	IC50 (VEGFR-2 Protein Kinase) [µM]	melting point [°C]	IC50 (HCT-116 cells; HCT-116) [µM]	IC50 (MCF-7 cells; MCF7) [µM]
O=C(CSc1nc2cc(Cl)ccc2o1)Nc1ccc(C(=O)Nc2ccccc2)cc1 [Compound 10]	16.7 ± 0.012	7.5	125.5 ± 0.72	16.1 ± 0.011	7.8	0.704 ± 0.009	245 to 247		
Cc1ccc2oc(SCC(=O)Nc3ccc(C(=O)NC4CCCCC4)cc3)nc2c1 [Compound 5]	20.9 ± 0.025	4.0	85.4 ± 0.55	12.4 ± 0.007	6.9		256 to 258		
O=C(CSc1nc2cc(Cl)ccc2o1)Nc1ccc(C(=O)NC2CCCCC2)cc1 [Compound 9]	17.1 ± 0.008	4.4	74.6 ± 0.53	12.3 ± 0.008	6.0	0.649 ± 0.008	260 to 262		
COc1ccc(NC(=O)c2ccc(NC(=O)CSc3nc4ccccc4o3)cc2)cc1 [Compound 4]	23.2 ± 0.012	2.2	51.5 ± 0.4	23.6 ± 0.015	2.2		260 to 262		
COc1ccc(NC(=O)c2ccc(NC(=O)CSc3nc4cc(C)ccc4o3)cc2)cc1 [Compound 8]	28.8 ± 0.01	4.7	135.4 ± 0.85	22.3 ± 0.004	6.0		258 to 260		
Cc1ccc2oc(SCC(=O)Nc3ccc(C(=O)Nc4ccc(Cl)cc4)cc3)nc2c1 [Compound 7]	32 ± 0.002	4.0	128.2 ± 0.75	24 ± 0.011	5.3		265 to 267		
O=C(CSc1nc2ccccc2o1)Nc1ccc(C(=O)NNC(=O)c2ccccc2)cc1 [Compound 13]	9.1 ± 0.005	10.0	91.3 ± 0.6	9 ± 0.005	10.1		270 to 272		
COc1ccc(NC(=O)c2ccc(NC(=O)CSc3nc4cc(Cl)ccc4o3)cc2)cc1 [Compound 12]	10.4 ± 0.01	12.1	126.2 ± 0.75	9.4 ± 0.016	13.4	0.385 ± 0.005	266 to 268		
O=C(CSc1nc2ccccc2o1)Nc1ccc(C(=O)Nc2ccc(Cl)cc2)cc1 [Compound 3]	24.2 ± 0.019	2.4	59.3 ± 0.45	22.7 ± 0.008	2.6		238 to 240		
Cc1ccc2oc(SCC(=O)Nc3ccc(C(=O)Nc4ccccc4)cc3)nc2c1 [Compound 6]	30.7 ± 0.011	4.0	124.6 ± 0.7	19.1 ± 0.006	6.5		240 to 242		
O=C(CSc1nc2cc(Cl)ccc2o1)Nc1ccc(C(=O)NNC(=O)c2ccccc2)cc1 [Compound 15]	12.9 ± 0.014	10.2	131.5 ± 0.8	15.3 ± 0.01	8.6	0.597 ± 0.007	277 to 279		
CNC(=O)c1cc(Oc2ccc(NC(=O)Nc3ccc(Cl)c(C(F)(F)F)c3)cc2)ccn1 [Sorafenib, reference compound]								11.6 ± 0.012	10.5 ± 0.014
Cc1ccc2oc(SCC(=O)Nc3ccc(C(=O)NNC(=O)c4ccccc4)cc3)nc2c1 [Compound 14]	9.7 ± 0.013	9.9	96.5 ± 0.65	9.5 ± 0.009	10.1		250 to 252		
O=C(CSc1nc2ccccc2o1)Nc1ccc(C(=O)Nc2ccccc2)cc1 [Compound 2]	18.5 ± 0.014	3.0	56.7 ± 0.36	11.7 ± 0.014	4.8		250 to 252		
